In publication PMC8517087, “Analysis of M4 Transmembrane Segments in NMDA Receptor Function: A Negative Allosteric Modulatory Site at the GluN1 M4 is Determining the Efficiency of Neurosteroid Modulation” (Frontiers in Pharmacology, 2021):
Structures can show the parent of a compound that is named as a salt.

Legend:
Experiment in all cases: two-electrode voltage clamp, Xenopus oocytes, -70 mV
Assay type in all cases: cell-based
GluN1^ΔM4+M4^N1/GluN2D = target: T1, GluN1^ΔM4+M4^N1/GluN2D (Rattus norvegicus; Mus musculus, UniProt P35439+Q03391); conditions: saturating glutamate and glycine, PS pre-applied 45 s
T1 construct: gene Grin1; M4-truncated GluN1 plus separately expressed M4 fragment carrying GluN1 signal peptide, with full-length GluN2D; Xenopus oocytes

GluN1/GluN2A = target: T2, GluN1/GluN2A (Rattus norvegicus; Mus musculus, UniProt P35436+P35439)
T2 construct: gene Grin1; full-length wild-type subunits in pNKS2, cRNA in Xenopus laevis oocytes; heterotetramer (rat GluN1 with mouse GluN2A)

GluN1^ΔM4+M4^N1/GluN2A = target: T3, GluN1^ΔM4+M4^N1/GluN2A (Rattus norvegicus; Mus musculus, UniProt P35436+P35439)
T3 construct: gene Grin1; M4-truncated GluN1 plus separately expressed M4 fragment carrying GluN1 signal peptide, with full-length GluN2A; Xenopus oocytes

GluN1/GluN2A^ΔM4+M4^N2A = target: T4, GluN1/GluN2A^ΔM4+M4^N2A (Rattus norvegicus; Mus musculus, UniProt P35436+P35439); conditions: saturating glutamate and glycine, PS pre-applied 45 s
T4 construct: gene Grin1; full-length GluN1 with M4-truncated GluN2A plus separately expressed GluN2A M4 fragment; Xenopus oocytes
T4 sequence (P35436 23-803, stated change not applied, other chains not shown): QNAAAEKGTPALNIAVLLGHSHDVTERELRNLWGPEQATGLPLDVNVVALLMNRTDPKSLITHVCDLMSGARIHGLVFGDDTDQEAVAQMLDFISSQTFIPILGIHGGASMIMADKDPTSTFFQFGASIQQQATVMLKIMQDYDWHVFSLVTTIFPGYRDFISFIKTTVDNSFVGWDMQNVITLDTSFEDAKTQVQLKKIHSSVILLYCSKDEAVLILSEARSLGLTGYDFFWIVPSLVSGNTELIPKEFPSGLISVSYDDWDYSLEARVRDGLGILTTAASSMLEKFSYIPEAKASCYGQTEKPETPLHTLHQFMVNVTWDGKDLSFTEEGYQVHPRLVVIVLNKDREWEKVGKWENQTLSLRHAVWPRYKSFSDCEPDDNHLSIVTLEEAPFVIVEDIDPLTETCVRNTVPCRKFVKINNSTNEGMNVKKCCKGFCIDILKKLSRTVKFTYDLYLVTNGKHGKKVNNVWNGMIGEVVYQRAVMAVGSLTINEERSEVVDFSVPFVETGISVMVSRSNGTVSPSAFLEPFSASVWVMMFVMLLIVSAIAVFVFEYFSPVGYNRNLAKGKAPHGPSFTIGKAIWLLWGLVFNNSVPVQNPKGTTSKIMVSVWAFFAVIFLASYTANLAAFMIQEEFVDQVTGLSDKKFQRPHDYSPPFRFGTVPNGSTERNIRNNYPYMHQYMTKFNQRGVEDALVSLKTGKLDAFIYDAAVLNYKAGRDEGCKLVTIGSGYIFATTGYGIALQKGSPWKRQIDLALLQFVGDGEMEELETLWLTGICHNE
T4 sequence (P35436 804-1464, stated change not applied, other chains not shown): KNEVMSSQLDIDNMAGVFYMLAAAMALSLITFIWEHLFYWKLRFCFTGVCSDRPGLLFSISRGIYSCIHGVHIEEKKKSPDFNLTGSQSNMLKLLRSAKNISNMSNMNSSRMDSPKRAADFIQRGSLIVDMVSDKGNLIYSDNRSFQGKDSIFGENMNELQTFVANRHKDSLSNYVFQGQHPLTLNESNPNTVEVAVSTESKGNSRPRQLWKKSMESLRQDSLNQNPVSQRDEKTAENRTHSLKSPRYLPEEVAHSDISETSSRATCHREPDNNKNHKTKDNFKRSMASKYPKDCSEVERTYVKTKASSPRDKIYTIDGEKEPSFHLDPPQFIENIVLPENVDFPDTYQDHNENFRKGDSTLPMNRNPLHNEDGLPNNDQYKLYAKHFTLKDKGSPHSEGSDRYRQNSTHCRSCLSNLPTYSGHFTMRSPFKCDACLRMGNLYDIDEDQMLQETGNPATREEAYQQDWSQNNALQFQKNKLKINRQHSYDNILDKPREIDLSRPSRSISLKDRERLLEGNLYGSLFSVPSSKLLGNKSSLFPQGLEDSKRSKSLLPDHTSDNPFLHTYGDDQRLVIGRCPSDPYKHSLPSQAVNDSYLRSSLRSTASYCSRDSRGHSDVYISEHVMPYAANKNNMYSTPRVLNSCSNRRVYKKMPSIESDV

T2 sequence (P35436 23-1464, other chains not shown): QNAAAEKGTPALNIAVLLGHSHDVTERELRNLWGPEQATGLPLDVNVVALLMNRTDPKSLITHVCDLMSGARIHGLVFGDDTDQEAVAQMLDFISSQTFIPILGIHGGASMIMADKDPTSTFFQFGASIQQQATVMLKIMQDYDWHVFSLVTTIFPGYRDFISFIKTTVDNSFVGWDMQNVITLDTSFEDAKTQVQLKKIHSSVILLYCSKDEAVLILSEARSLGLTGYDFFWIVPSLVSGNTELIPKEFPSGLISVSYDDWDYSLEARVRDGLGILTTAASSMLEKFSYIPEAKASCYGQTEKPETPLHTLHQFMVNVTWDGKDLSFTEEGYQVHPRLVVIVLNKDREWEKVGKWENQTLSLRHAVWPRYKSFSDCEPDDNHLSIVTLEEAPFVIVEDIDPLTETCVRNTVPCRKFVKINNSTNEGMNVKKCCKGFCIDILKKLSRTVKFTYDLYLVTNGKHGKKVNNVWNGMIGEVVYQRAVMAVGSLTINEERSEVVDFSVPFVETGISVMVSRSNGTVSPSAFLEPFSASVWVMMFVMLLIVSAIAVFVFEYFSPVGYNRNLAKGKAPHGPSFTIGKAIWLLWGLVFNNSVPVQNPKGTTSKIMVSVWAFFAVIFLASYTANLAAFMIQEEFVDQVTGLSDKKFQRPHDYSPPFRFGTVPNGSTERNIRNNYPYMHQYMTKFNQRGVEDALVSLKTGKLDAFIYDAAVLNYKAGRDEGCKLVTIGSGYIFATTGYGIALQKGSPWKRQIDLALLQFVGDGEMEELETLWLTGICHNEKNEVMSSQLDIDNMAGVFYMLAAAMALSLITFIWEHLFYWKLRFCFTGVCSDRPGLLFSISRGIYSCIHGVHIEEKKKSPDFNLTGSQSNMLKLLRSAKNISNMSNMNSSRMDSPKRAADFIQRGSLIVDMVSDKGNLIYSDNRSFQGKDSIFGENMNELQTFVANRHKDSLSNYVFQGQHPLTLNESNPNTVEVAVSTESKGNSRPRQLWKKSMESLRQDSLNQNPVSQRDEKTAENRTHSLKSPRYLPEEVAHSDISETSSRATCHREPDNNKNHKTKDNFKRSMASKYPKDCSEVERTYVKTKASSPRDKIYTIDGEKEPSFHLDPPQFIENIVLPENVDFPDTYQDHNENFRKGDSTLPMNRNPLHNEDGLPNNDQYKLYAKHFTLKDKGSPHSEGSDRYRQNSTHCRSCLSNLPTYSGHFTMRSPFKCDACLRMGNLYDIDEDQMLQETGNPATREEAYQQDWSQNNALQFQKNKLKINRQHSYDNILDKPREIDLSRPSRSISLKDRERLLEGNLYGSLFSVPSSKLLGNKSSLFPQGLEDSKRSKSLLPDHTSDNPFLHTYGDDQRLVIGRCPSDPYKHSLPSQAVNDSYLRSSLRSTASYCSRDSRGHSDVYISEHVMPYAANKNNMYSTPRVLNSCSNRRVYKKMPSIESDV

In the case of `CC(=O)[C@H]1CC[C@H]2[C@@H]3CC=C4C[C@@H](OS(=O)(=O)O)CC[C@]4(C)[C@H]3CC[C@]12C` [pregnenolone sulfate, 20-oxo-5-pregnen-3β-yl sulfate], the “Imax potentiation (fold)” value (GluN1^ΔM4+M4^N1/GluN2D) is reported as 1.45 ± 0.19 fold, the EC50 (GluN1/GluN2A) is reported as 12.4 ± 1.3 µM and the EC50 (GluN1^ΔM4+M4^N1/GluN2A) is reported as 15 ± 1.1 µM. For the same molecule, the “Imax potentiation at 100 μM (fold)” value (GluN1/GluN2A^ΔM4+M4^N2A) was ~ 1.1 fold.
